Patent US12686679B2, “Crystals of alkynyl-containing compound, salt and solvate thereof, preparation method, and applications” (GUANGZHOU HEALTHQUEST PHARMA CO., LTD., priority 2020, dated 2026)
Values belong to the compound of their own block, whether it stands above or below them.

Columns and labels:
Format in all cases: physicochemical
[1] = Stability test of crystal form I (different temperature, humidity and light)
Procedure: (§1) Using X-ray powder diffractometer (Brooke D8 advance or D2 Phase) was used to characterize the solid. • Scanning angle: […]-40 (2θ). • Step size: 0.02° (2θ). • Scan speed: 0.3 sec/step (D8), 0.2 sec/step (D2). • Light tube voltage: 40 KV (D8), 30 KV (D2). • Light tube current: 40 mA (D8), 10 mA (D2). • Rotation: On. • Sample tray: zero background sample tray. TGA
The stability of the crystal form I prepared in Examples 1-13 was studied. Before the test, the single impurities of the crystal form I were less than 0.05%, and the total impurities were less than 0.05%.
Place the crystal form I under 60° C., high humidity, and light conditions, and sample at 0 days/5 days/10 days to investigate its content and related substances. The lighting conditions are: total illuminance: ≥1.2×106 Lux·hr, near ultraviolet energy ≥200 w·hr/m2.

[2] = Suspension stirring experiment of crystal form I (stability in different solvents); conditions: for 50° C. suspension (solid form) / Room temperature suspension (solid form): stirred 3 days
Procedure: as §1
Weigh the sample crystal form I and place it in a sample bottle, and then add a solvent to prepare a suspension. The resulting suspension is stirred at room temperature and 50° C. for 3 days, then filtered and collected the solid, and the solid is characterized.

[3] = Hygroscopicity test of crystal form I, dynamic moisture adsorption (DVS)
Procedure: (§2) DVS analysis of solids using IGASORP dynamic water adsorption instrument. • temperature: 25° C. • airflow: 250 mL/min. • Scan loop: 2. • Minimum test time: 30 min. • Longest test time: 2 h. • Waiting for balance: 98%. PLM
The hygroscopicity of the crystal form I prepared in Examples 1-13 was studied, and 10 mg of the crystal form I was taken for a dynamic moisture adsorption (DVS) test.

[4] = Suspension stirring experiment of crystal form II (stability in different solvents); conditions: for Room temperature suspension (solid form) / 50° C. suspension (solid form): stirred 3-4 days
Procedure: as §1
The resulting suspension is stirred at room temperature and 50° C. for 3-4 days, then filtered and collected the solid. After vacuum drying at room temperature, the solid was characterized.

[5] = Hygroscopicity study of crystal form II, dynamic moisture adsorption (DVS); conditions: for DVS (90% RH): moisture absorption at 90% relative humidity (RH), 25° C.
Procedure: as §2
The crystalline form II prepared in Example 21 was used to conduct a moisture absorption study, and about 10 mg of crystalline form II was taken for a dynamic moisture adsorption (DVS) test. The conclusions are described in Table 24 below

[6] = Stability test of crystal form II (different temperature and humidity)
[7] = 0 day (before the test), listed as Form I
[8] = 0 day (before the test), listed as crystal form I
[9] = 60° C., high humidity and light conditions on 5 and 10 days
[10] = 0 day (before the test), listed as crystal form II
[11] = 60° C. and high humidity in 5 and 10 days

XPRD ([1]; 0 day): Form I
content ([1]; 0 day): 101.2%
Single impurity [1, 7]: <0.05%
Total impurities [1, 7]: <0.05%
Single impurity [1, 8]: less than 0.05%
Total impurities [1, 8]: less than 0.05%
content [1, 9]: ~100%
single impurity content [1, 9]: less than 0.05%
total impurity content [1, 9]: less than 0.05%
stability (conclusion) ([1]; 60° C., high humidity and light conditions, 5 and 10 days): good stability
Single impurity ([1]; 5 days-60° C.): <0.05%
Total impurities ([1]; 5 days-60° C.): <0.05%
XPRD ([1]; 5 days-60° C.): Form I
content ([1]; 5 days-60° C.): 100.8%
Single impurity ([1]; 5 days-high humidity): <0.05%
Total impurities ([1]; 5 days-high humidity): <0.05%
XPRD ([1]; 5 days-high humidity): Form I
content ([1]; 5 days-high humidity): 101.4%
Single impurity ([1]; 5 days-light): <0.05%
Total impurities ([1]; 5 days-light): <0.05%
XPRD ([1]; 5 days-light): Form I
content ([1]; 5 days-light): 101.5%
Single impurity ([1]; 10 days-60° C.): <0.05%
Total impurities ([1]; 10 days-60° C.): <0.05%
XPRD ([1]; 10 days-60° C.): Form I
content ([1]; 10 days-60° C.): 100.8%
Single impurity ([1]; 10 days-high humidity): <0.05%
Total impurities ([1]; 10 days-high humidity): <0.05%
XPRD ([1]; 10 days-high humidity): Form I
content ([1]; 10 days-high humidity): 100.9%
Single impurity ([1]; 10 days-light): <0.05%
Total impurities ([1]; 10 days-light): <0.05%
XPRD ([1]; 10 days-light): Form I
content ([1]; 10 days-light): 100.4%
50° C. suspension (solid form) ([2]; Acetone): Form I
Room temperature suspension (solid form) ([2]; Acetone): Form I
50° C. suspension (solid form) ([2]; Acetonitrile): Form I
Room temperature suspension (solid form) ([2]; Acetonitrile): Form I
50° C. suspension (solid form) ([2]; Acetonitrile:water 1:1 (v:v)): Form I
Room temperature suspension (solid form) ([2]; Acetonitrile:water 1:1 (v:v)): Form I
50° C. suspension (solid form) ([2]; Butanone): Form I
Room temperature suspension (solid form) ([2]; Butanone): Form I
50° C. suspension (solid form) ([2]; Ethanol): Form I
Room temperature suspension (solid form) ([2]; Ethanol): Form I
50° C. suspension (solid form) ([2]; Ethyl acetate): Form I
Room temperature suspension (solid form) ([2]; Ethyl acetate): Form I
50° C. suspension (solid form) ([2]; Isopropanol): Form I
Room temperature suspension (solid form) ([2]; Isopropanol): Form I
50° C. suspension (solid form) ([2]; Isopropyl acetate): Form I
Room temperature suspension (solid form) ([2]; Isopropyl acetate): Form I
50° C. suspension (solid form) ([2]; Methanol): Form I
Room temperature suspension (solid form) ([2]; Methanol): Form I
50° C. suspension (solid form) ([2]; Methyl tert-butyl ether): Form I
Room temperature suspension (solid form) ([2]; Methyl tert-butyl ether): Form I
stability in a variety of solvents (conclusion) ([2]; suspension stirring, room temperature and 50° C.): good stability
DVS (90% RH) ([3]; 90% RH, 25° C.): 0.12%
DVS XRPD ([3]; XRPD after DVS): Unchanged
hygroscopicity (conclusion) ([3]; during storage): not easy to absorb water
Structure (SMILES): Cc1ccc(C(=O)Nc2ccc(CN3CCN(C)CC3)c(C(F)(F)F)c2)cc1C#Cc1cnc2[nH]ncc2c1 [Crystal form I, 3-((1H-pyrazolo[3,4-b]pyridin-5-yl)ethynyl)-4-methyl-N-(4-((4-methylpiperazine-1-yl)methyl)-3-(trifluoromethyl)phenyl) benzamide]

Room temperature suspension (solid form) ([4]; 1,4-dioxane): Crystal Form II
50° C. suspension (solid form) ([4]; Acetone:water 1:2 (v:v)): Crystal Form XIV
50° C. suspension (solid form) ([4]; Acetonitrile): Crystal Form II
Room temperature suspension (solid form) ([4]; Acetonitrile): Crystal Form II
50° C. suspension (solid form) ([4]; Ethyl acetate): Crystal Form II
Room temperature suspension (solid form) ([4]; Ethyl acetate): Crystal Form II
50° C. suspension (solid form) ([4]; Isopropanol): Crystal Form II
Room temperature suspension (solid form) ([4]; Isopropanol): Crystal Form II
Room temperature suspension (solid form) ([4]; Isopropyl acetate): Crystal Form II
Room temperature suspension (solid form) ([4]; Methanol:water 3:1 (v:v)): Crystal Form II
Room temperature suspension (solid form) ([4]; N-heptane): Crystal Form II
50° C. suspension (solid form) ([4]; Tetrahydrofuran): Crystal Form II
Room temperature suspension (solid form) ([4]; Tetrahydrofuran): Crystal Form II
50° C. suspension (solid form) ([4]; ethanol): Crystal Form II
Room temperature suspension (solid form) ([4]; ethanol): Crystal Form II
50° C. suspension (solid form) ([4]; methanol): Crystal Form II
Room temperature suspension (solid form) ([4]; methanol): Crystal Form II
stability at room temperature and 50° C. (conclusion) ([4]; suspension stirring in solvents): good stability
hygroscopicity (conclusion) ([5]; during storage): not easy to absorb water
XRPD before and after DVS ([5]; listed as Crystal Form II): Unchanged
XRPD before and after DVS ([5]; listed as crystal form II): has not changed
DVS (90% RH) ([5]; listed as Crystal Form II): 1.66%
DVS (90% RH) ([5]; listed as crystal form II): 1.66%
XPRD ([6]; 0 day): Crystal Form II
content ([6]; 0 day): 98.7%
Single impurity ([6]; 0 day (before the test)): <0.05%
Total impurities ([6]; 0 day (before the test)): <0.05%
Single impurity [6, 10]: less than 0.05%
Total impurities [6, 10]: less than 0.05%
The content (single impurity) [6, 11]: less than 0.05
content [6, 11]: ≥ 98.5%
total impurity content [6, 11]: less than 0.05
stability (conclusion) ([6]; 60° C. and high humidity, 5 and 10 days): good stability
Single impurity ([6]; 5 days-60° C.): <0.05%
Total impurities ([6]; 5 days-60° C.): <0.05%
XPRD ([6]; 5 days-60° C.): Crystal Form II
content ([6]; 5 days-60° C.): 99.5%
Single impurity ([6]; 5 days-high (high humidity)): <0.05%
Total impurities ([6]; 5 days-high (high humidity)): <0.05%
XPRD ([6]; 5 days-high (high humidity)): Crystal Form II
content ([6]; 5 days-high (high humidity)): 99.4%
Single impurity ([6]; 10 days-60° C.): <0.05%
Total impurities ([6]; 10 days-60° C.): <0.05%
XPRD ([6]; 10 days-60° C.): Crystal Form II
content ([6]; 10 days-60° C.): 99.2%
Single impurity ([6]; 10 days-high (high humidity)): <0.05%
Total impurities ([6]; 10 days-high (high humidity)): <0.05%
XPRD ([6]; 10 days-high (high humidity)): Crystal Form II
content ([6]; 10 days-high (high humidity)): 99.0%
Structure (SMILES): Cc1ccc(C(=O)Nc2ccc(CN3CCN(C)CC3)c(C(F)(F)F)c2)cc1C#Cc1cnc2[nH]ncc2c1.O=C(O)/C=C/C(=O)O [Crystal form II, 3-((1H-pyrazolo[3,4-b]pyridin-5-yl)ethynyl)-4-methyl-N-(4-((4-methylpiperazine-1-yl)methyl)-3-(trifluoromethyl)phenyl) benzamide fumarate]
